Results reported in ChEMBL document CHEMBL3885881, “DrugMatrix”.

Species: Rattus norvegicus
Test: DrugMatrix - Regimen: Daily Repeat
Type: toxicity, organism-based, Sprague-Dawley
Design: regimen Daily Repeat, gender Male, age 6-8 weeks
Conditions: in vivo, po, route oral GAVAGE, […]; for ABSOLUTE BASOPHIL / ABSOLUTE EOSINOPHIL / ABSOLUTE LYMPHOCYTE / ABSOLUTE MONOCYTE / ABSOLUTE SEGMENTED NEUTROPHIL / BASOPHIL / EOSINOPHIL / ERYTHROCYTE COUNT / HEMATOCRIT / HEMOGLOBIN / LEUKOCYTE COUNT / LYMPHOCYTE / MEAN CORPUSCULAR HEMOGLOBIN / MEAN CORPUSCULAR HEMOGLOBIN CONCENTRATION / MEAN CORPUSCULAR VOLUME / MONOCYTE / NEUTROPHIL / NUCLEATED RED BLOOD CELLS / PLATELET COUNT: tissue Blood; for ALANINE AMINOTRANSFERASE / ALBUMIN / ALKALINE PHOSPHATASE / ASPARTATE AMINOTRANSFERASE / BLOOD UREA NITROGEN / CARBON DIOXIDE / CHLORIDE / CHOLESTEROL / CREATINE PHOSPHOKINASE / CREATININE / GLUCOSE / LACTATE DEHYDROGENASE / LIPASE / PHOSPHORUS / POTASSIUM / SODIUM / TOTAL BILIRUBIN / TOTAL PROTEIN / URIC ACID: tissue Plasma
[1] = 0 mg/kg, 72 h, dose level Control, time 3 day
[2] = 0 mg/kg, 120 h, dose level Control, time 5 day
[3] = 5 mg/kg, 72 h, dose level Low, time 3 day

O=c1oc2ccccc2c(O)c1Cc1c(O)c2ccccc2oc1=O [DICUMAROL]
ABSOLUTE BASOPHIL [1]: 0 CELLS/uL | ABSOLUTE EOSINOPHIL [1]: 0 CELLS/uL | ABSOLUTE LYMPHOCYTE [1]: 9244.83 CELLS/uL | ABSOLUTE MONOCYTE [1]: 102 CELLS/uL | ABSOLUTE SEGMENTED NEUTROPHIL [1]: 869.83 CELLS/uL | BASOPHIL [1]: 0% | EOSINOPHIL [1]: 0% | ERYTHROCYTE COUNT [1]: 5.43 x10E6/uL | HEMATOCRIT [1]: 34.03% | HEMOGLOBIN [1]: 13.27 G/DL | LEUKOCYTE COUNT [1]: 10.22 x10E3/uL | LYMPHOCYTE [1]: 90.33% | MEAN CORPUSCULAR HEMOGLOBIN [1]: 24.48 pg | MEAN CORPUSCULAR HEMOGLOBIN CONCENTRATION [1]: 39.03 G/DL | MEAN CORPUSCULAR VOLUME [1]: 62.75 fL | MONOCYTE [1]: 1% | NEUTROPHIL [1]: 8.67% | NUCLEATED RED BLOOD CELLS [1]: 0.17 /100WBC | PLATELET COUNT [1]: 989 x10E3/uL | ALANINE AMINOTRANSFERASE [1]: 77 u/L | ALBUMIN [1]: 3.97 G/DL | ALKALINE PHOSPHATASE [1]: 464.83 u/L | ASPARTATE AMINOTRANSFERASE [1]: 89.83 u/L | BLOOD UREA NITROGEN [1]: 12.17 mg/dL | CARBON DIOXIDE [1]: 34.17 mmol/L | CHLORIDE [1]: 98.33 MEQ/L | CHOLESTEROL [1]: 75.17 mg/dL | CREATINE PHOSPHOKINASE [1]: 367.67 u/L | CREATININE [1]: 0.16 mg/dL | GLUCOSE [1]: 142.67 mg/dL | LACTATE DEHYDROGENASE [1]: 139.33 u/L | LIPASE [1]: 9.5 u/L | PHOSPHORUS [1]: 10.85 mg/dL | POTASSIUM [1]: 6.38 MEQ/L | SODIUM [1]: 143.2 MEQ/L | TOTAL BILIRUBIN [1]: 0.2 mg/dL | TOTAL PROTEIN [1]: 5.77 G/DL | URIC ACID [1]: 0.7 mg/dL | ABSOLUTE BASOPHIL [2]: 0 CELLS/uL | ABSOLUTE EOSINOPHIL [2]: 0 CELLS/uL | ABSOLUTE LYMPHOCYTE [2]: 8295.33 CELLS/uL | ABSOLUTE MONOCYTE [2]: 84.67 CELLS/uL | ABSOLUTE SEGMENTED NEUTROPHIL [2]: 970 CELLS/uL | BASOPHIL [2]: 0% | EOSINOPHIL [2]: 0% | ERYTHROCYTE COUNT [2]: 5.74 x10E6/uL | HEMATOCRIT [2]: 36.22% | HEMOGLOBIN [2]: 13.85 G/DL | LEUKOCYTE COUNT [2]: 9.35 x10E3/uL | LYMPHOCYTE [2]: 88.67% | MEAN CORPUSCULAR HEMOGLOBIN [2]: 24.13 pg | MEAN CORPUSCULAR HEMOGLOBIN CONCENTRATION [2]: 38.25 G/DL | MEAN CORPUSCULAR VOLUME [2]: 63.08 fL | MONOCYTE [2]: 1% | NEUTROPHIL [2]: 10.33% | NUCLEATED RED BLOOD CELLS [2]: 0.17 /100WBC | PLATELET COUNT [2]: 883.83 x10E3/uL | ALANINE AMINOTRANSFERASE [2]: 64.5 u/L | ALBUMIN [2]: 4.12 G/DL | ALKALINE PHOSPHATASE [2]: 425.67 u/L | ASPARTATE AMINOTRANSFERASE [2]: 88.5 u/L | BLOOD UREA NITROGEN [2]: 14.17 mg/dL | CARBON DIOXIDE [2]: 30.5 mmol/L | CHLORIDE [2]: 100.33 MEQ/L | CHOLESTEROL [2]: 55.33 mg/dL | CREATINE PHOSPHOKINASE [2]: 287.17 u/L | CREATININE [2]: 0.2 mg/dL | GLUCOSE [2]: 162.83 mg/dL | LACTATE DEHYDROGENASE [2]: 111.33 u/L | LIPASE [2]: 10.5 u/L | PHOSPHORUS [2]: 10.32 mg/dL | POTASSIUM [2]: 5.13 MEQ/L | SODIUM [2]: 143.93 MEQ/L | TOTAL BILIRUBIN [2]: 0.17 mg/dL | TOTAL PROTEIN [2]: 5.9 G/DL | URIC ACID [2]: 0.77 mg/dL | ABSOLUTE BASOPHIL [3]: 0 CELLS/uL | ABSOLUTE EOSINOPHIL [3]: 0 CELLS/uL | ABSOLUTE LYMPHOCYTE [3]: 11414.33 CELLS/uL | ABSOLUTE MONOCYTE [3]: 52 CELLS/uL | ABSOLUTE SEGMENTED NEUTROPHIL [3]: 1133.67 CELLS/uL | BASOPHIL [3]: 0% | EOSINOPHIL [3]: 0% | ERYTHROCYTE COUNT [3]: 5.32 x10E6/uL | HEMATOCRIT [3]: 33.6% | HEMOGLOBIN [3]: 13.17 G/DL | LEUKOCYTE COUNT [3]: 12.6 x10E3/uL | LYMPHOCYTE [3]: 91% | MEAN CORPUSCULAR HEMOGLOBIN [3]: 24.8 pg | MEAN CORPUSCULAR HEMOGLOBIN CONCENTRATION [3]: 39.2 G/DL | MEAN CORPUSCULAR VOLUME [3]: 63.37 fL | MONOCYTE [3]: 0.33% | NEUTROPHIL [3]: 8.67% | NUCLEATED RED BLOOD CELLS [3]: 0 /100WBC | PLATELET COUNT [3]: 1057.33 x10E3/uL | ALANINE AMINOTRANSFERASE [3]: 67.67 u/L | ALBUMIN [3]: 4.03 G/DL | ALKALINE PHOSPHATASE [3]: 399.67 u/L | ASPARTATE AMINOTRANSFERASE [3]: 91 u/L | BLOOD UREA NITROGEN [3]: 10.33 mg/dL | CARBON DIOXIDE [3]: 32.67 mmol/L | CHLORIDE [3]: 99 MEQ/L | CHOLESTEROL [3]: 74 mg/dL | CREATINE PHOSPHOKINASE [3]: 353.33 u/L | CREATININE [3]: 0.24 mg/dL | GLUCOSE [3]: 146 mg/dL | LACTATE DEHYDROGENASE [3]: 177 u/L | LIPASE [3]: 9 u/L | PHOSPHORUS [3]: 11.23 mg/dL | POTASSIUM [3]: 6.24 MEQ/L | SODIUM [3]: 143.6 MEQ/L | TOTAL BILIRUBIN [3]: 0.17 mg/dL | TOTAL PROTEIN [3]: 5.7 G/DL | URIC ACID [3]: 0.6 mg/dL
